Patent publication US8394776B2, “Use of ursolic acid saponin,oleanolic acid saponin in preparation of increasing leucocytes and/or platelet medicine” (Chengdu Di'Ao Jiuhong Pharmaceutical Factor, priority 2007, dated 2013)
Marks after values point to notes of the source that are not given here.

Key:
[1] = test system: erythrocytes; test: Comparison of hemolytic activities (HD50); type: cell-based, rabbit; details: 10% rabbit erythrocyte suspension; 37° C., 1 hour; from linear regression over 40-200 μg/ml
Experimental: The test samples were dissolved in DMSO/physiological saline (1:4) as a solvent to generate the tested concentration gradients of 40, 80, 120, 160, 200 μg/ml. Blood (25 ml) was taken from a rabbit heart, poured into an erlenmeyer flask containing glass beads and shook gently for 10 min to remove fibrinogen so as to convert the blood into defidrinated blood. The resultant blood was transferred into a graduation centrifugal tube. About 10 times physiological saline was added, shook up and centrifuged at 2000 r/min for 5 minutes. The supernatant was removed, and the precipitated erythrocytes were washed with physiological saline again by the above method for 4 times until the supernatant was colorless and transparent. The resulant erythrocytes were prepared into a 10% suspension using physiological saline for testing. 250 μl of the 10% erythrocyte suspension was added into 2.5 ml of a tested sample, solvent (blank control) or distilled water (positive control), mixed thoroughly, and immediately placed in a thermotank maintained at 37° C. for incubation; and it was taken out 1 hour later and centrifuged at 3000 r/min for 5 minutes. The supernatant was taken for determining the OD value at 540 nm with a spectrophotometer. Hemolysis (Hemolysis Percentage)=(absorbance of sample−absorbance of blank control)×100%÷(absorbance of positive control-absorbance of blank control); and the data processing was performed by SPSS13.0 statistical software with drug concentration as an independent variable X and hemolysis as a dependent variable Y to obtain a linear regression equation; then, the drug concentration causing 50% hemolysis, i.e HD50, was calculated according to the equation. A P-value <0.05 was considered statistically significant.

[2] = test system: bone marrow mononuclear cell (BMMNC); test: Monocytic proliferation in bone marrow of mice cultured in vitro (SRB method); type: cell-based, KunMing mice; details: cultured 5 days; for Growth Rate of Proliferation %, 1 μg/ml: versus blank control
Text: 15-20 KunMing mice (purchased from Laboratory Animal Center of Zhengzhou University, Henan) of either sex were killed by cervical vertebral dislocation. Bilateral thighbones were isolated and caput femoris was cut off. The marrow was washed repeatedly with serum-free RPMI1640 (Gibco Corp.), the wash solution containing marrow cells was collected, sucked and blew repeatedly with a pipette to make the cells disperse. After standing for a moment, the supernatant was sucked up and centrifugated at 100 g for 3 min to collect the cell pellet. The cells were resuspended in a culture media and brought to a volume of 5 ml. The cell suspension was added to the upper layer of a centrifugal tube containing 5 ml of a lymphocyte separation medium of mice and centrifugated at 400 g for 30 min. The milk-white bone marrow mononuclear cell (BMMNC) layer in the middle of the interface was collected and washed with serum-free medium RPMI1640 for three times to obtain a BMMNC suspension, which was inoculated into a 96-well plate at forty thousand per well after counting. Positive drugs rhG-CSF (recombinant granulocyte colony-stimulating factor, manufactured by QI LU Pharmaceutical Co., LTD., Shandong) or test samples of different concentrations were added, and meanwhile a blank control group without drug was established. They were cultured in a 5% CO2 incubator at 37 for 5 days. Cell proliferation was measured by a conventional SRB (Sigma) method in which OD at 490 nm was measured after being dyed with SRB. The growth rates of cell proliferation after drug treatment were calculated (Growth rate of cell proliferation=experimental group-blank control group/blank control group*100%).

[3] = test system: leukocytes (WBC); test: Cyclophosphamide-induced leukopenia in mice: leukocytes (WBC); type: in vivo, Kunming mice
Experimental: (§1) Further, in vivo experiments were carried out on the compounds involved in the present invention using animal models of cyclophosphamide-induced leukopenia in mice. Experimental methods are briefed as follows: Healthy Kunming mice, of which half were male and the other half were female, were divided into groups, each group incuding 18 mice, and those mice weighing 18-22 g were selected and divided into groups randomly according to their body weights. Each group was given a different drug, wherein the negative control group and model control group were given physiological saline of the same volume, and the positive control group was treated with granulocyte colony-stimulating factors 40 μg/kg through subcutaneous injection (injection volume: 0.1 ml/10 g). After administration for 3 days, except the negative control group, other treatment groups were treated with 100 mg/kg cyclophosphamide (CY) through lumbar injection once a day for three days to cause a decrease of leukocytes in mice. A drop of blood (20 μl) was taken from posterior orbital venous plexus to detect the hemogram to observe the situation of leukocytes and platelets on day 1, day 3 and/or day 5 after the final lumbar injection of cyclophosphamide (i.e day 1, day 3 and/or day 5 after modeling) (Note: Each treatment group was administrated incessantly). The mice were killed on day 5 after the final lumbar injection of cyclophosphamide (i.e day 5 after modeling), and the leukocytes (WBC) and platelets (PLT) of the hemogram index were counted.
This experiment mainly studies the effect of G-1, G-6 and G-8 of ursolic acid saponin in increasing leukocytes, and compares the therapeutic effects of aglycon of ursolic acid and oleanolic acid and of the compound G-22 which has been disclosed by a patent.
(§2) The purpose of this experiment is to study the effect of G-1, G-3, G-11 and G-12 of ursolic acid saponin and oleanolic acid saponin in increasing platelets, and to observe whether G-11 and G-12 of oleanolic acid saponin have an effect in increasing leukocytes.

[4] = test system: platelets (PLT); test: Cyclophosphamide-induced leukopenia in mice: platelets (PLT); type: in vivo, Kunming mice; details: Experimental Example 3
Experimental: as §1, §2

[5] = test system: WBC; test: 60Co-γ-induced leukopenia in mice: WBC; type: in vivo, Kunming mice
Text: In order to illustrate the present invention in detail, with a model induced by ^60Co-γ rays, the effects of G-1 and G-22 on leukocytes of chemotherapy-induced-leukopenia mice were compared. The specific operation and the results are as follows.
Healthy Kunming mice, of which half were male and the other half were female, were divided into 6 groups randomly, with 17-18 in each group. Blood was taken from caudal vein to determine the normal hemogram (leucocyte, erythrocyte, platelet and hemoglobin), and adjustments were made according to body weights and hemogram results. The normal control group and model group were given isometric physiological saline once a day for 7 days, and then the post-radiation hemogram was determined. Except the normal control group, other groups were each subjected to a whole body exposure to ^60Co-γ rays at a total dose of 3.0 Gy to prepare the models of leukopenia in mice, followed by further administration for 14 days. The G-CSF group was adminitrated through subcutaneous injection for 5 days from the irradiation day on and the hemogram was determined by taking blood respectively on day 3, day 7 and day 14 after irradiation.

[6] = Experimental Example 2, 0.8 mg/kg
[7] = Experimental Example 2, 0.8 mg/kg, CY 100 mg/kg x 3 days
[8] = Experimental Example 2, 0.8 mg/kg, especially on day 3 after modeling
[9] = Experimental Example 3, 0.8 mg/kg
[10] = 40 μg/kg s.c. for 5 days from irradiation day, 3.0 Gy
[11] = 40 μg/kg subcutaneous injection
[12] = Experimental Example 2, 40 μg/kg subcutaneous injection
[13] = Experimental Example 3, 40 μg/kg subcutaneous injection

## C[C@H]1[C@H](C)CC[C@]2(C(=O)O[C@@H]3O[C@H](CO)[C@@H](O)[C@H](O)[C@H]3O)CC[C@]3(C)C(=CC[C@@H]4[C@@]5(C)CC[C@H](O[C@@H]6OC[C@H](O)[C@H](O)[C@H]6O)C(C)(C)[C@@H]5CC[C@]43C)[C@H]12 [Sample G-8, 3-O-(α-L-arabopyranosyl) ursolic acid-28-O-(β-D-glucopyranosyl) ester]
[1]
  HD50 (drug concentration causing 50% hemolysis): 69.96 µg/mL
[2]
  Growth Rate of Proliferation %, 1 μg/ml: 29.5%
[3]; [6]
  leukocytes (WBC), Day 3 after modeling: 6.91 ± 2.54**★
  leukocytes (WBC), Day 5 after modeling: 15.32 ± 9.07
[3]; [7]
  leukocytes (WBC), Day1 after modeling: 0.85 ± 0.39
[3]; [8]
  difference in increasing leukocytes compared with G-22 (in words): obvious difference in increasing leukocytes

## C[C@H]1[C@H](C)CC[C@]2(C(=O)O[C@@H]3O[C@H](CO)[C@@H](O)[C@H](O)[C@H]3O)CC[C@]3(C)C(=CC[C@@H]4[C@@]5(C)CC[C@H](O[C@@H]6O[C@H](CO)[C@@H](O)[C@H](O)[C@H]6O)C(C)(C)[C@@H]5CC[C@]43C)[C@H]12 [Sample G-3, 3-O-(β-D-glucopyranosyl) ursolic acid-28-O-(β-D-glucopyranosyl) ester]
[1]
  HD50 (drug concentration causing 50% hemolysis): 137.99 µg/mL
[2]
  Growth Rate of Proliferation %, 1 μg/ml: 25.2%
[4]; 0.8 mg/kg
  platelets, Day 1 after modelng: 473.12 ± 144.68
  platelets, Day 5 after modeling: 341.93 ± 186.39**★
[4]; 0.8 mg/kg, day 5 after modeling
  difference in increasing platelets compared with G-22 (in words): significant difference in increasing leukocytes and platelets
[3]; [9]
  leukocytes, Day 1 after modeling: 1.16 ± 0.53
  leukocytes, Day 5 after modeling: 5.62 ± 2.78
[3]; Experimental Example 3, 0.8 mg/kg, day 5 after modeling
  difference in increasing leukocytes compared with G-22 (in words): significant difference in increasing leukocytes and platelets

## C[C@H]1[C@H](C)CC[C@]2(C(=O)O)CC[C@]3(C)C(=CC[C@@H]4[C@@]5(C)CC[C@H](O[C@@H]6OC[C@H](O)[C@H](O)[C@H]6O)C(C)(C)[C@@H]5CC[C@]43C)[C@H]12 [Sample G-6, 3-O-(α-L-arabopyranosyl) ursolic acid]
[1]
  HD50 (drug concentration causing 50% hemolysis): 121.40 µg/mL
[2]
  Growth Rate of Proliferation %, 1 μg/ml: 29.9%
[3]; [6]
  leukocytes (WBC), Day 3 after modeling: 7.13 ± 2.61**★
  leukocytes (WBC), Day 5 after modeling: 17.16 ± 14.13
[3]; [7]
  leukocytes (WBC), Day1 after modeling: 1.19 ± 0.47
[3]; [8]
  difference in increasing leukocytes compared with G-22 (in words): obvious difference in increasing leukocytes

B1: G-CSF: recombinant granulocyte colony-stimulating factor, manufactured by QI LU Pharmaceutical Co., LTD., Shandong (protein, UniProt P09919 31-207, looked up)
Granulocyte …: TPLGPASSLPQSFLLKCLEQVRKIQGDGAALQEKLVSECATYKLCHPEELVLLGHSLGIPWAPLSSCPSQALQLAGCLSQLHSGLFLYQGLLQALEGISPELGPTLDTLQLDVADFATTIWQQMEELGMAPALQPTQGAMPAFASAFQRRAGGVLVASHLQSFLEVSYRVLRHLAQP
[2]; G-CSF positive drug at 5 pg/ml
  Growth Rate of Proliferation %: 33.2%
[5]; [10]
  WBC, Day 3 after irradiation: 3.71 ± 1.11** 109/L
  WBC, Day 7 after irradiation: 4.56 ± 1.17** 109/L
  WBC, Day 14 after irradiation: 7.01 ± 1.52** 109/L
[5]; G-CSF group before irradiation, G-CSF is given only from the irradiation day on
  WBC, 1 week after administration: 9.89 ± 3.30 109/L
[5]; normal hemogram (baseline), G-CSF group, not yet dosed
  WBC, Normal: 8.64 ± 2.01 109/L
[4]; [11]
  platelets, Day 1 after modelng: 408.38 ± 86.38
  platelets, Day 5 after modeling: 206.64 ± 140.14
[4]; G-CSF 40 μg/kg subcutaneous injection
  effect in increasing platelets (in words): no obvious effect in increasing platelets
[3]; [12]
  leukocytes (WBC), Day1 after modeling: 1.17 ± 0.33
  leukocytes (WBC), Day 3 after modeling: 5.93 ± 3.10
  leukocytes (WBC), Day 5 after modeling: 13.18 ± 5.53
[3]; [13]
  leukocytes, Day 1 after modeling: 0.63 ± 0.20
  leukocytes, Day 5 after modeling: 9.70 ± 5.28
